US10479808B1, “Bisphosphonate-based coordination complexes as enhanced pharmaceutical formulations and method of preparing the same” (University of Puerto Rico, priority 2018, dated 2019)
“Also recorded” adds a separate entry of the source.

How the values were obtained:
Format in all cases: physicochemical
[1] = Dissolution profile in PBS (pH 7.40), ALEN-Cu complexation, UV-Vis; settings: for order of structural stability of the complexes: PBS pH 7.40, from dissolution profiles
[2] = Dissolution profile in FaSSGF (pH 1.60), ALEN-Cu complexation, UV-Vis; settings: for order of structural stability of the complexes: FaSSGF pH 1.60, from dissolution profiles
[3] = Thermal stability by thermal gravimetric analysis (TGA) under N2
Procedure: Thermographs were recorded in a TGA Q500 (TA Instruments Inc.). Thermograph of the BP and pBioCCs were collected using a temperature range of 30-700° C. at 5° C./min under a N2 gas purge. In all cases, ˜10 mg of powder sample was thermally treated. Data was analyzed with TA Universal Analysis software version 4.3A.
It was expected that the thermograph of each pBioCCs consists of at least two mayor decomposition profiles one at lower temperature representing the loss of coordinated or lattice water molecules, and another at higher temperature which accounts for the thermal combustion of the organic moiety, the BP ligand, in this case ALEN. A third decomposition event might be observed above 350° C., due to the thermal degradation of the metal/metal oxide.

Row | time to reach maximum release ([1]; PBS pH 7.40, 37 °C) [min] | time to reach maximum release ([2]; FaSSGF pH 1.60, 37 °C) [s] | thermal stability (in words) [3] | Structure (SMILES) | order of structural stability of the complexes [1] | order of structural stability of the complexes [2]
1 | 10 | 10 | – | NCCCC(O)(P(=O)(O)O)P(=O)(O)O [ALEN, Alendronate sodium trihydrate, reference compound] | – | –
2 | – | – | high thermal stability | NCCCC(O)(P(=O)([O-])O)P(=O)([O-])O.O.[Ca+2] [ALEN-Ca form I] | ALEN-Mg<ALEN-Ca form I<ALEN-Ca form II<ALEN-Zn form I<ALEN-Zn form II | less stable; also recorded: ALEN-Ca form I<ALEN-Ca form II<ALEN-Zn form I<ALEN-Mg<ALEN-Zn form II
3 | – | – | high thermal stability | NCCCC(O)(P(=O)([O-])O)P(=O)([O-])O.O.[Zn+2] [ALEN-Zn form I] | ALEN-Mg<ALEN-Ca form I<ALEN-Ca form II<ALEN-Zn form I<ALEN-Zn form II | ALEN-Ca form I<ALEN-Ca form II<ALEN-Zn form I<ALEN-Mg<ALEN-Zn form II
